Assay results taken from PubChem BioAssay (NCI).
Values joined by “and” are separate entries in the source; they are usually repeats but may differ in a detail not shown here. Equal entries are not always repeated.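 Five compound concentrations were applied to cells in 96-well plates for 48 hours; endpoints were derived by simple linear interpolation of the resulting dose-response curve. The concentration for 50% growth inhibition is given as GI50. At the TGI there is no net growth.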

Tested on: RXF-631 renal
Assay: NCI tumour cell line growth inhibition, 48 h

Structure (SMILES) | TGI [µM] | GI50 [nM]
COc1ccc(C(=O)O/N=C2\CCCC\C2=C/c2ccccc2)cc1 | > 100 | 
c1ccc([CH2][Sn]([CH2]c2ccccc2)([S]c2cccc3cccnc23)[S]c2cccc3cccnc23)cc1 | 0.552 | 225
Cc1c(C(=O)/C=C/c2ccco2)[n+](=O)c2ccccc2n1[O-] | > 100 | 
COC(=O)C1=CC(=O)C(C(=O)Nc2ccc(OC)cc2)C(c2ccccc2)O1 (stereo not drawn) | > 83.6 | 
CN1CCC(O)C(CNC23CC4CC(CC(C4)C2)C3)C1 (stereo not drawn) | > 100 | 
CC(C)NC(=O)OCc1nnn2c1C(OC(=O)NC(C)C)CC2 (stereo not drawn) | > 100 | 
CCOC(=O)C(C(=O)c1ccccc1-c1ccccc1C(=O)O)=P(c1ccccc1)(c1ccccc1)c1ccccc1 | > 100 | 
CC(=O)OCC1OC(n2cc(F)c(=O)[nH]c2=O)C(OC(C)=O)C1OC(C)=O (stereo not drawn) | > 100 | 
COc1ccc(NC(=O)CC/C(CC(=O)c2ccco2)=N/Nc2ccc([N+](=O)[O-])cc2[N+](=O)[O-])cc1 | > 100 | 
CCc1ccc(Cc2ccc(CC)c(NC(=O)C(=O)Cc3nc4ccccc4nc3C)c2CC)c(CC)c1NC(=O)C(=O)Cc1nc2ccccc2nc1C | > 100 | 
CCCCN(CCCC)C(=Nc1ccccc1)N(CCCC)CCCC | 26.2 | 
N#Cc1c([N+](=O)[O-])cc(C(F)(F)F)cc1[N+](=O)[O-] | 27.3 | 

Tested on: MDA-N
Assay: NCI tumour cell line growth inhibition, 48 h

Structure (SMILES) | TGI | GI50
O=C1CCCC1C(=O)Nc1ccc2ccccc2c1 (stereo not drawn) | > 100 µM | 
COc1ccc(C2SC(N)=Nc3c2c(C)nn3C(=O)c2ccncc2)cc1 (stereo not drawn) | > 100 µM | 
Cc1cc(O)c2c(c1)C[C@@H](O)C1=C2C(=O)c2c(O)ccc(OC3CC(O)C(OC4CC(OC5CCC(OC6CC(O)C(OC7CC(OC8CCC(O)C(C)O8)C(O)C(C)O7)C(C)O6)C(C)O5)C(O)C(C)O4)C(C)O3)c2C1=O (stereo partly drawn) | 0.211 µM and 0.387 µM and 0.562 µM | 0.207 µM and 0.24 µM
COc1c(O)c2ccccc2c2cc(O)ccc12 | 2.57 µM | 
CCc1nc(N)nc(N)c1-c1ccc(Cl)cc1 | > 100 µM | 
CCOP1(=O)OCC2OC(n3cnc4c(N)ncnc43)C(O)C2O1 (stereo not drawn) | > 100 µM | 
CC(=O)OCC1OC(n2cc(F)c(=O)[nH]c2=O)C(OC(C)=O)C1OC(C)=O (stereo not drawn) | > 56.2 µM | 
O=P(O)(O)OC1C(OP(=O)(O)O)C(OP(=O)(O)O)C(OP(=O)(O)O)C(OP(=O)(O)O)C1OP(=O)(O)O (stereo not drawn) | > 2000 µM | > 2000 µM
O=C(Nc1ccc(Cl)cc1)NS(=O)(=O)c1ccc2c(c1)CCC2 | > 100 µM | 
CC1CN(CCO)CC(C)O1 (stereo not drawn) | > 100 µM | 
COC1CC(OC2OC(CO)C(O)C(O)C2O)/C(=C\C#N)C(O)C1OC (stereo not drawn) | > 100 µM | 
O=c1c(Cl)nsnc1Cl | 36.9 µM | 
Nc1nc2nc3c(nc2c(=O)[nH]1)CN(c1ccc(C(=O)O)cc1)C3=O | > 100 µM | 
